Assay results from US20220265646A1, “PIEZO AGONISTS FOR PREVENTING OR REVERTING ABNORMAL AMYLOID DEPOSITION” (ITÄ-SUOMEN YLIOPISTO, priority 2019, published 2022).

Molecular target: T1, native Piezo1Rs (Homo sapiens, UniProt Q92508)
T1 construct: endogenous in cells; host or cells: human iPSC-derived microglia
Assay: Calcium imaging of Yoda1-evoked Ca2+ influx in hiPSC-derived microglia
Type: cell-based
Details: 50 μM Yoda1, control hiPSC microglia pre-incubated 15 min in BS, n=6
Description: To study the calcium influx evoked by native Piezo1 Rs expressed in microglia cells the present inventors used short Yoda1 applications (2 s, 50 μM if not otherwise specified). For this purpose, human IPSO derived microglia cells and SV-40 (immortalized human microglia) cells were seeded on 7 mm cover slips 1 day prior to the imaging experiment. Cells were loaded with the calcium-sensitive fluorescent dye Fluo-4AM (5 μM) for 30 min at 37° C. Followed by wash-incubation for 15 min in Ab 20 μM, 50 μM GdCI and basic solution (BS) as a control at 37° C. The basic solution containing the following (BS, in mM): 2.5 KCl, 152 NaCl, 10 glucose, 2 CaCl2, and 10 HEPES at pH 7.4. Fluorescence was visualized using monochromatic light source (TILL Photonics GmbH) using Ex/Im 494/[…] and a CCD camera (SensiCam). Chemicals were applied using a fast perfusion system (RSC-200, BioLogic Science). To quantify the difference in the amplitude of calcium transients, the ratio values were normalized by subtracting a baseline and further divided by the amplitude of the calcium transient to the 2 sec application of the ionomycin. Data were pre-analyzed offline using the FEI offline analysis (TILL Photonics), and further analysis was automatized using MatLab. Quantitative data were expressed as means±SEM unless otherwise stated. Number of experiments is indicated by n. Significance assessed with the ANOVA test or Mann-Whitney t test for non-parametric data. Statistically significant differences were set at*p<0.05 and **p<0.01.
Differentiation of microglia. Differentiation of microglia was carried out as previously described with minor modifications (Abud et al., 2017). Shortly, on DO, iPSCs were dissociated to single cells with 0.5 mM EDTA or Accutase and were replated at a density of 6-,000-16,000 cells/cm2 on Matrigel in E8, 0.5% penicillin/streptomycin (P/S, 50 IU/50 […]), 5 ng/ml BMP4, 25 ng/ml activin a (both from Peprotech or Miltenyi Biotec), 1 μM CHIR 99021 (Axon or Stem Cell Technologies) and 10 μM Y-27632 to induce mesodermal differentiation. […]

T1 sequence (Q92508 whole entry): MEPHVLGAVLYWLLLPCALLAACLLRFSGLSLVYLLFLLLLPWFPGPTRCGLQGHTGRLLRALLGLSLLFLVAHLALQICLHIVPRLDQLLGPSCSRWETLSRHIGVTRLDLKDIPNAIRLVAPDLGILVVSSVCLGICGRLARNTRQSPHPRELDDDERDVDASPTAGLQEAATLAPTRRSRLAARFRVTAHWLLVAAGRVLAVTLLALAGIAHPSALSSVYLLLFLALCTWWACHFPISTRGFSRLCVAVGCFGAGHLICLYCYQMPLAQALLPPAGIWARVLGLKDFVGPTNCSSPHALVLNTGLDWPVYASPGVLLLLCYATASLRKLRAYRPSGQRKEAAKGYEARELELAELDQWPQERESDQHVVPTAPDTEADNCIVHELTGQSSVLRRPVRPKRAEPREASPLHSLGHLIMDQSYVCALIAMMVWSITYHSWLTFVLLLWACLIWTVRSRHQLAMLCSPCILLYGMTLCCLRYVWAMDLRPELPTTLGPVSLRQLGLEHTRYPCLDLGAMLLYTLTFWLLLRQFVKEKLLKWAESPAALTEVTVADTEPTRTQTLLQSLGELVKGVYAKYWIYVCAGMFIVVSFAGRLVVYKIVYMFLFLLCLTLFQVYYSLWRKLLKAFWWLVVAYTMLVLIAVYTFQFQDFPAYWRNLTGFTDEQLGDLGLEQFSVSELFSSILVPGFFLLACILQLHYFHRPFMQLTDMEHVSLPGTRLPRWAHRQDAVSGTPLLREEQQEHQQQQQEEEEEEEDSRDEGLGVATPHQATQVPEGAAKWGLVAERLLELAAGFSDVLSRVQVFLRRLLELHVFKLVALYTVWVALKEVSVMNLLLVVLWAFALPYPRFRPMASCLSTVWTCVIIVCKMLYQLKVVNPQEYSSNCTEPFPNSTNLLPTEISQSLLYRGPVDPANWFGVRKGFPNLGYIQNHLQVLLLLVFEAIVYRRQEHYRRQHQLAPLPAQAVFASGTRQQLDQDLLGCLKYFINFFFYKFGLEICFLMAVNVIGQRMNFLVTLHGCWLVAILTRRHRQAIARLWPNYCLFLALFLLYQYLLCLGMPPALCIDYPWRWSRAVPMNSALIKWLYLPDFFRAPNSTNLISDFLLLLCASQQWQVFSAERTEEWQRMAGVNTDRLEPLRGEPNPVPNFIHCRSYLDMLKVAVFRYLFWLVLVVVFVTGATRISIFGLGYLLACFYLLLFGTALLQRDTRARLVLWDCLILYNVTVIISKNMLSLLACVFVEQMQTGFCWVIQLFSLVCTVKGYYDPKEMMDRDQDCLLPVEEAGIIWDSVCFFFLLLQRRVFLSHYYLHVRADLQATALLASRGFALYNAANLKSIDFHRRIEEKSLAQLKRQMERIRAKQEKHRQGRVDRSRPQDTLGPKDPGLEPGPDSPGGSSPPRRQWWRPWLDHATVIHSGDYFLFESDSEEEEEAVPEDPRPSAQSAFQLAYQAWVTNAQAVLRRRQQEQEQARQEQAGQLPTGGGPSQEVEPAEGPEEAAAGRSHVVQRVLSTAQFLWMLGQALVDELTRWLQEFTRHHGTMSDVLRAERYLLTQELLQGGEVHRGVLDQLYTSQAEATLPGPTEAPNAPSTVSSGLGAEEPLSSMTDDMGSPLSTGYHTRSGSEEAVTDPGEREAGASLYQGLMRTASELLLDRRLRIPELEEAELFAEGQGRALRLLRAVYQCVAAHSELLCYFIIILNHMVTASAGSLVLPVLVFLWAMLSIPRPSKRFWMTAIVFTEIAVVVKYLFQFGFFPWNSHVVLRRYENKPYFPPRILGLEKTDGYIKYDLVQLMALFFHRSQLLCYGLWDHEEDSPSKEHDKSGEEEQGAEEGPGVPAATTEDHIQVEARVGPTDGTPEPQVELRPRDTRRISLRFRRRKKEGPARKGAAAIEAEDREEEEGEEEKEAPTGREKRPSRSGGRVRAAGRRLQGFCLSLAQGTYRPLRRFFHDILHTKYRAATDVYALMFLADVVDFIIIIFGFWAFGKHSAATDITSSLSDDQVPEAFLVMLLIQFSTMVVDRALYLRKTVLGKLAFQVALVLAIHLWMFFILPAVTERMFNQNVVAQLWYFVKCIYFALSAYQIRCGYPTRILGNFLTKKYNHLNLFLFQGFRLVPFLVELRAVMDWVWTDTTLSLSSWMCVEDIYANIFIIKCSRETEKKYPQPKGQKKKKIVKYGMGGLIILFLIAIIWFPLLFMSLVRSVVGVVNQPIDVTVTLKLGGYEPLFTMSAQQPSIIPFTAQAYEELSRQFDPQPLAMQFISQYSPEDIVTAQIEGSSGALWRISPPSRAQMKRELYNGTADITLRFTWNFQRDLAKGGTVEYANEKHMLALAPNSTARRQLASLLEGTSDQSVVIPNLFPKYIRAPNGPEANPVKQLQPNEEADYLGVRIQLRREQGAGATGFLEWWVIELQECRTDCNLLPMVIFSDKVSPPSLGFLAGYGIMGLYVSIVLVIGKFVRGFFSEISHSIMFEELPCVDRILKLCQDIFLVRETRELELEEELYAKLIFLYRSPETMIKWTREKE

Clc1cccc(Cl)c1CSc1nnc(-c2cnccn2)s1 [Yoda1]
Ca2+ transients evoked by Yoda1 short (2 s) application, amplitude normalized to ionomycin: 1.15±0.36
